Results published in PubChem BioAssay (NCI).
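Following 48 hours of exposure in 96-well plates, responses at five concentrations were used to interpolate endpoints linearly. Abbreviation: GI50, concentration required for 50% inhibition of growth. TGI marks complete inhibition of growth.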

What was measured:
Test in all cases: DTP human tumour cell line panel, 48 h
A549 NSCLC = test system: A549 NSCLC
DU-145 prostate = test system: DU-145 prostate
HS 578T breast = test system: HS 578T breast
NCI-H460 lung = test system: NCI-H460 lung
NCI/ADR-RES ovarian = test system: NCI/ADR-RES ovarian
PC-3 prostate = test system: PC-3 prostate
TK-10 renal = test system: TK-10 renal
U251 CNS = test system: U251 CNS
UO-31 renal = test system: UO-31 renal
T-47D breast = test system: T-47D breast

Cc1cc2c(cc1Cl)SC(=Nc1ccc(Cl)cc1)N(S(=O)(=O)c1ccc(Br)s1)S2(=O)=O
GI50 (A549 NSCLC): 18 µM
TGI (A549 NSCLC): 48.7 µM
GI50 (DU-145 prostate): 13.3 µM
TGI (DU-145 prostate): 26.1 µM
GI50 (HS 578T breast): 25.3 µM
TGI (HS 578T breast): 62.2 µM
GI50 (NCI-H460 lung): 35.2 µM
TGI (NCI-H460 lung): > 100 µM
GI50 (NCI/ADR-RES ovarian): 12.2 µM
TGI (NCI/ADR-RES ovarian): 26.5 µM
GI50 (PC-3 prostate): 12.5 µM
TGI (PC-3 prostate): 27.1 µM
GI50 (TK-10 renal): 19.9 µM
TGI (TK-10 renal): 49.6 µM
GI50 (U251 CNS): 8.57 µM
TGI (U251 CNS): 21.4 µM
GI50 (UO-31 renal): 24.6 µM
TGI (UO-31 renal): 61 µM

NCCNCCNCc1c2ccccc2c(CNCCNCCN)c2ccccc12
TGI (A549 NSCLC): > 100 µM
TGI (NCI-H460 lung): > 100 µM
TGI (TK-10 renal): > 100 µM
TGI (U251 CNS): > 100 µM
TGI (UO-31 renal): > 100 µM

CSC(=Nc1ccc([N+](=O)[O-])cc1C#N)NC(=O)c1ccccc1
TGI (A549 NSCLC): > 100 µM
TGI (NCI-H460 lung): > 100 µM
TGI (TK-10 renal): > 100 µM
TGI (U251 CNS): > 100 µM

O=c1[nH]c(=O)n(Cc2ccc(C34CC5CC(CC(C5)C3)C4)c(O)c2)cc1F
GI50 (DU-145 prostate): 16.7 µM
TGI (DU-145 prostate): 32.4 µM
GI50 (HS 578T breast): 15 µM
TGI (HS 578T breast): 41.7 µM
GI50 (NCI-H460 lung): 16.5 µM
TGI (NCI-H460 lung): 43 µM
GI50 (NCI/ADR-RES ovarian): 13 µM
TGI (NCI/ADR-RES ovarian): 31.4 µM
GI50 (T-47D breast): 13.6 µM
TGI (T-47D breast): 44.4 µM
GI50 (TK-10 renal): 15.4 µM
TGI (TK-10 renal): 33.7 µM
GI50 (U251 CNS): 12.3 µM
TGI (U251 CNS): 24.9 µM
GI50 (UO-31 renal): 14.2 µM
TGI (UO-31 renal): 29.8 µM

CCN(CC)C(=O)c1cccc2c(OC)ccc(OC)c12
TGI (A549 NSCLC): > 100 µM
TGI (NCI-H460 lung): > 100 µM
TGI (TK-10 renal): > 100 µM
TGI (U251 CNS): > 100 µM
TGI (UO-31 renal): > 100 µM

CS(=O)(=O)N(CCC#N)c1ccc(/C=C2\N=C(c3ccccc3Cl)OC2=O)cc1
TGI (A549 NSCLC): > 100 µM
TGI (NCI-H460 lung): > 100 µM
TGI (TK-10 renal): > 100 µM
TGI (U251 CNS): > 100 µM
TGI (UO-31 renal): > 100 µM

O=c1c(-c2cccc3ccccc23)c(-c2cccc3ccccc23)c1=O
TGI (A549 NSCLC): 12 µM
TGI (NCI-H460 lung): 4 µM
TGI (TK-10 renal): > 100 µM
TGI (U251 CNS): 18.4 µM
TGI (UO-31 renal): > 100 µM

C/C(=C1\C(=O)Nc2ccccc21)c1cccc(/C(C)=C2/C(=O)Nc3ccccc32)n1
GI50 (A549 NSCLC): 7.38 µM
TGI (A549 NSCLC): > 100 µM
GI50 (DU-145 prostate): 2.93 µM
TGI (DU-145 prostate): > 100 µM
GI50 (HS 578T breast): 4.1 µM
TGI (HS 578T breast): > 100 µM
GI50 (NCI-H460 lung): 5.08 µM
TGI (NCI-H460 lung): > 100 µM
GI50 (NCI/ADR-RES ovarian): 4.93 µM
TGI (NCI/ADR-RES ovarian): 44.8 µM
GI50 (PC-3 prostate): 24.4 µM
TGI (PC-3 prostate): > 100 µM
GI50 (T-47D breast): 4.63 µM
TGI (T-47D breast): > 100 µM
GI50 (U251 CNS): 7.6 µM
TGI (U251 CNS): > 100 µM
GI50 (UO-31 renal): 24.5 µM
TGI (UO-31 renal): > 100 µM

CC1COS(=O)N1c1ccccc1 (stereo not drawn)
TGI (A549 NSCLC): > 100 µM
TGI (NCI-H460 lung): > 100 µM
TGI (TK-10 renal): > 100 µM
TGI (U251 CNS): > 100 µM
TGI (UO-31 renal): > 100 µM

COc1ccc(C(O)C(c2ccc(OCc3ccccc3)cc2)c2ccc(OCc3ccccc3)cc2)cc1 (stereo not drawn)
TGI (A549 NSCLC): > 100 µM
TGI (NCI-H460 lung): > 100 µM
TGI (TK-10 renal): > 100 µM
TGI (U251 CNS): > 100 µM
TGI (UO-31 renal): > 100 µM

CC(NC(=O)c1ccc(Cl)c(Cl)c1)c1ccc(-c2ccccc2)cc1 (stereo not drawn)
TGI (A549 NSCLC): 45.5 µM
TGI (DU-145 prostate): 57.5 µM
TGI (HS 578T breast): 65.1 µM
TGI (NCI-H460 lung): > 100 µM
TGI (NCI/ADR-RES ovarian): > 100 µM
TGI (PC-3 prostate): > 100 µM
TGI (TK-10 renal): 68.7 µM
TGI (U251 CNS): > 100 µM
TGI (UO-31 renal): 29.4 µM

Clc1ccc2c(NC3CCC(NC4CCCCC4)CC3)ccnc2c1 (stereo not drawn)
GI50 (A549 NSCLC): 4.84 µM
TGI (A549 NSCLC): 17.3 µM
GI50 (DU-145 prostate): 13.3 µM
TGI (DU-145 prostate): 33.6 µM
GI50 (NCI-H460 lung): 5.27 µM
TGI (NCI-H460 lung): 18.6 µM
GI50 (NCI/ADR-RES ovarian): 8.48 µM
TGI (NCI/ADR-RES ovarian): 30.4 µM
GI50 (PC-3 prostate): 11.2 µM
TGI (PC-3 prostate): 43.2 µM
GI50 (T-47D breast): 3.42 µM
TGI (T-47D breast): 17.7 µM
GI50 (TK-10 renal): 2.13 µM
TGI (TK-10 renal): 7.11 µM
GI50 (U251 CNS): 3.6 µM
TGI (U251 CNS): 13.3 µM
GI50 (UO-31 renal): 3.42 µM
TGI (UO-31 renal): 16 µM
